# Test results reported in patent US6479491B1, “Disubstituted morpholine, oxazepine or thiazepine derivatives, their preparation and their use as dopamine d4 receptor antagonists” (Neurosearch A/S, priority 1996, dated 2002).
# Where a name gives a salt, the structure may show the parent alone.
# Legend:
# D2 dopamine Receptors = molecular target: T1, D2 dopamine Receptors (Rattus norvegicus, UniProt P61169); test: In vitro inhibition of 3H-spiperone binding to D2 dopamine receptors; conditions: for IC50: IC50 for inhibition of specific 3H-spiperone (0.2 nM) binding, corpus striatum of male Wistar rats
# T1 construct: Corpus Striatum from male Wistar rats (150-200 g) is homogenized; from tissue; host or cells: rat corpus striatum
# Method: I) In vitro Inhibition of ^3H-spiperone Binding to D2 dopamine Receptors
# Tissue preparation: Preparations are performed at 0-4° C. unless otherwise indicated. Corpus Striatum from male Wistar rats (150-200 g) is homogenized for 5-10 sec in 10 ml KH2PO4 (50 mM, pH 7.4) using an Ultra-Turrax homogenizer. The suspension is centrifuged at 27,000×g for 15 min. The supematant is discarded and the pellet is resuspended in 50 mM KH2PO4, pH 7.4 (2000 ml per g of original tissue) and used for binding assays.
# Assay: Aliquots of 0.5 ml tissue are added to 25 μl of test solution and 25 μl of ^3H-spiperone (0.2 nM, final concentration), mixed and incubated for 20 min at 37° C. Non-specific binding is determined using butadamol (1 μM, final concentration). After incubation the samples are placed on ice for 10 min. The assay is terminated by addition of 5 ml of ice-cold buffer and poured directly onto Whatman GF/C glass fibre filters (presoaked in 0.1% PEI for at least 20 min) under suction and immediately washed with 5 ml ice-cold buffer. The amount of radioactivity on the filters is determined by conventional liquid scintillation counting. Specific binding is total binding minus non-specific binding.
# [1] = molecular target: T2, D4.2 Dopamine Receptors (Human Recombinant) (Homo sapiens, UniProt P21917, DEL265-296); test: In vitro inhibition of 3H-spiperone binding to D4.2 dopamine receptors (human recombinant); conditions: for IC50: IC50 for inhibition of specific 3H-spiperone (0.5 nM) binding, membranes of CHO cells transfected with human recombinant D4.2 receptor
# T2 construct: purchased RBI D-195; host or cells: Chinese Hamster Ovary (CHO) cells, transfected; supplied as frozen membranes
# T2 sequence (P21917 with tags, fused parts or gaps DEL265-296): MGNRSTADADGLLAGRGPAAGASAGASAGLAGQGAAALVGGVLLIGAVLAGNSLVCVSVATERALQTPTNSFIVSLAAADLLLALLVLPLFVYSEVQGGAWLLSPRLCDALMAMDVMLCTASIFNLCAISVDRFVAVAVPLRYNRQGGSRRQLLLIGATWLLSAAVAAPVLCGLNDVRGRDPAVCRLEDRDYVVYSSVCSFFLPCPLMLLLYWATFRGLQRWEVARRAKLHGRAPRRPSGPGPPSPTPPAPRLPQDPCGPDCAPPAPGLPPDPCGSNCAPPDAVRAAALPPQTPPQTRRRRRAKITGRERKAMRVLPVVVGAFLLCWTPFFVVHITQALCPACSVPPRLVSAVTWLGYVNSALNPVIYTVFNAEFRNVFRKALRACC
# Method: II) In Vitro Inhibition of ^3H-spiperone Binding to D4.2 Dopamine Receptors (Human Recombinant)
# Membranes are suspended in 10 mM Tris-HCl (pH 7.2) containing 2 mM EDTA, and stored tightly sealed at −80° C.
# Asssay: The membranes are thawed and diluted in incubation buffer (50 mM Tns-HCl, pH 7.4, containing 120 mM NaCl, 5 mM KCl, 5 mM MgCl2 and 1 mM EDTA) —0.25 ml of membranes to 4.75 ml of incubation buffer. Aliquots of 100 μl of diluted membranes are added to 100 μl of test solution and 50 μl of ^3H-spiperone (0.5nM, final concentration). Finally, 750 μl incubation buffer is added and the assay mixture is incubated for 60 min at 25° C. Non-specific binding is determined using haloperidol (1 μM, final concentration). After incubation the assay is terminated by rapid filtration over GF/C glass fibre filters (presoaked in 0.1% PEI for at least 20 min), then washed twice with 5 ml ice cold 50 mM Tris-HCl in 0.9% NaCl at pH 7.4. The amount of radioactivity on the filters is determined by conventional liquid scintillation counting. Specific binding is total binding minus non-specific binding.
# T1 sequence (P61169 whole entry): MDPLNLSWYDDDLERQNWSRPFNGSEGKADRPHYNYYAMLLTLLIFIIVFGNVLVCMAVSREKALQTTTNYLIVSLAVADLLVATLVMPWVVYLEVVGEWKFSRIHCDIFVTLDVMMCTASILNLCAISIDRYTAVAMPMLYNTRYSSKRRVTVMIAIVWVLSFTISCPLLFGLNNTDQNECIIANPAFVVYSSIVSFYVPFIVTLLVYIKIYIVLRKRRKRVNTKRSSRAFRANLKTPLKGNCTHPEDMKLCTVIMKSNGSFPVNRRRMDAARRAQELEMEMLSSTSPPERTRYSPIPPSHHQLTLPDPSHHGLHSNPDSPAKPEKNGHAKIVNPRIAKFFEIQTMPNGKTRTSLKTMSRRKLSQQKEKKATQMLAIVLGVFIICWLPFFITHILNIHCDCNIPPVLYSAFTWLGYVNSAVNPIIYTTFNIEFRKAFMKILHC
melting point,affinity for dopamine D2 receptors (in words) (D2 dopamine Receptors; qualitative statement),affinity for dopamine D4 receptors (in words) ([1]; qualitative statement),SMILES,IC50 (D2 dopamine Receptors),IC50 [1]
80 to 110 °C,,,COc1ccc(N)cc1OCC1CN(Cc2ccc(Cl)cc2)CCO1.O=C(O)C(=O)O (racemic),,
,,,COc1cc(Cl)ccc1OCC1CN(Cc2ccc(Cl)cc2)CCCO1 (racemic) [(±)-2-[(4-chloro-2-methoxyphenoxy)methyl]-4-(4-chlorobenzyl)perhydro oxazepine oxalic acid salt],> 10000 nM,2.5 nM
,,,COc1cc(Cl)ccc1OCC1CN(Cc2ccc(Cl)cc2)CCO1 (racemic) [(±)-4-(4-Chlorobenzyl)-2-[(4-chloro-2-methoxyphenoxy)methyl]morpholine oxalic acid salt],> 10000 nM,4 nM
,no or only low affinity,no or only low affinity,"CCOc1ccccc1OCC1CNCCO1 (stereo not shown) [Viloxazine, 2-[(2-ethoxy-phenoxy)methyl]morpholine, reference compound]",,
